Measurements taken from ChEMBL document CHEMBL4680377, “Discovery of a Novel Series of Pyridone-Based EP3 Antagonists for the Treatment of Type 2 Diabetes” (ACS Med Chem Lett, 2021).
Converted amounts (≈) assume the structure as drawn.

Assays:
[1] = Metabolic stability in human liver microsomes assessed as intrinsic clearance half life; type: ADME, Microsome
[2] = Metabolic stability in rat liver microsomes assessed as intrinsic clearance half life; type: ADME, Microsome
[3] = Kinetic solubility of compound in PBS buffer; type: physicochemical; settings: read-out: Kinetic_solubility
[4] = Kinetic solubility of compound at pH 2; type: physicochemical; settings: buffer, read-out: Kinetic_solubility
[5] = Apparent permeability across apical to basolateral side in dog MDCK cells; type: ADME, cell-based, Canis lupus familiaris
[6] = target: T1, Prostaglandin E2 receptor EP3 subtype (Homo sapiens, UniProt P43115); test: Displacement of [3H]-PGE2 from human EP3 expressed in Chem-1 cell membranes incubated for 2 hrs by TopCount scintillation plate reader analysis; design: species or system Membrane
T1 sequence (P43115 whole entry): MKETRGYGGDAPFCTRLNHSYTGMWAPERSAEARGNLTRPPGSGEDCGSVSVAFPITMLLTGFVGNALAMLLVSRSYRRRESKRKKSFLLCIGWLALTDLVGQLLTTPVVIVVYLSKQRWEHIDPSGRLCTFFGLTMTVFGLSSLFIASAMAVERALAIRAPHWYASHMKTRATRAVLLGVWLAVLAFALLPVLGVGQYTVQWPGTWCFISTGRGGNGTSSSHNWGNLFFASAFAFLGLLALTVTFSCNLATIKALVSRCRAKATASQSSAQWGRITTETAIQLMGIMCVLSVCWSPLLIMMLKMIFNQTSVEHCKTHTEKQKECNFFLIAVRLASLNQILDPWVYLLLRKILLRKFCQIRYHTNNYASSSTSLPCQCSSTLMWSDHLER

[7] = target: T1, Prostaglandin E2 receptor EP3 subtype; test: Antagonist activity at human EP3 expressed in CHO cells assessed as suppression of sulprostone-induced inhibition of forskolin induced cAMP production measured after 30 mins by HTR-FRET assay; type: functional, cell-based

Row | SMILES | half-life [1] [h] | half-life [2] [h] | solubility kinetic [3] [µM] | solubility kinetic [4] [µM] | Papp A→B [5] [nm/s] | Ki [6] [µM] | IC50 [7] [µM]
1 | O=C1NC(=O)/C(=C/C(c2ccc(-c3ccc4cccc(F)c4c3)[nH]c2=O)C2CCCC2)O1 (centres undefined) | 1.21 | > 3 |  |  |  |  | 
2 | CCC(/C=C1\OC(=O)NC1=O)(CC)c1ccc(-c2ccc3c(F)cc(F)cc3c2)[nH]c1=O |  |  |  |  |  | 0.29 | 
3 | CCc1cccc2ccc(-c3ccc(C(/C=C4\OC(=O)NC4=O)(CC)CC)c(=O)[nH]3)cc12 | 0.178 | 1.77 |  |  |  |  | 
4 | O=C1NC(=O)/C(=C/C2(c3ccc(-c4ccc5cccc(F)c5c4)[nH]c3=O)CC2)O1 | 2.48 | > 3 | 33.4 (≈ 13 µg/mL) | 27.4 (≈ 10.7 µg/mL) |  | 0.028 | 0.055
5 | O=C1NC(=O)/C(=C/C2(c3ccc(-c4ccc5cccc(F)c5c4)[nH]c3=O)CCCC2)O1 | > 3 | > 3 | 24.5 (≈ 10.3 µg/mL) | 2.55 (≈ 1.07 µg/mL) |  |  | 
6 | CCC(/C=C1\OC(=O)NC1=O)(CC)c1ccc(-c2ccc3cccc(C(C)C)c3c2)[nH]c1=O | 0.758 | 1.88 |  |  |  | 0.12 | 
7 | CCn1ncc2cc(C)c(-c3ccc(C(/C=C4\OC(=O)NC4=O)(CC)CC)c(=O)[nH]3)cc21 |  |  |  |  |  | 5.7 | > 20
8 | CCn1ncc2c(F)c(-c3ccc(C(/C=C4\OC(=O)NC4=O)(CC)CC)c(=O)[nH]3)ccc21 |  |  |  |  |  | 1.3 | > 20
9 | CCn1ncc2cc(F)c(-c3ccc(C(/C=C4\OC(=O)NC4=O)(CC)CC)c(=O)[nH]3)cc21 |  |  |  |  |  | 0.12 | 
10 | CC(C)/C(=C1\NC(=O)OC1=O)c1ccc(-c2ccc3cccc(F)c3c2)[nH]c1=O | > 3 | > 3 |  |  |  |  | 
11 | CC(C)(/C=C1\OC(=O)NC1=O)c1ccc(-c2ccc3cccc(F)c3c2)[nH]c1=O | 1.89 | > 3 | 36.1 (≈ 14.2 µg/mL) | 1.66 (≈ 0.651 µg/mL) |  |  | 
12 | CCn1cc2c(F)c(-c3ccc(C(/C=C4\OC(=O)NC4=O)(CC)CC)c(=O)[nH]3)ccc2n1 |  |  |  |  |  | > 10 | > 20
13 | CCN1CCOc2ccc(-c3ccc(C(/C=C4\OC(=O)NC4=O)(CC)CC)c(=O)[nH]3)cc21 | 0.972 | 1.51 | 24.1 (≈ 10.5 µg/mL) | 21 (≈ 9.19 µg/mL) |  |  | 
14 | CCC(/C=C1\OC(=O)NC1=O)(CC)c1ccc(-c2ccc3cc(F)cc(F)c3c2)[nH]c1=O | > 3 | > 3 |  |  |  | 0.028 | 0.045

Continued, values first:

Row | half-life [1] [h] | half-life [2] [h] | solubility kinetic [3] [µM] | solubility kinetic [4] [µM] | Papp A→B [5] [nm/s] | Ki [6] [µM] | IC50 [7] [µM] | SMILES
15 | 0.67 | 0.143 | 31.2 (≈ 13.2 µg/mL) | 4.9 (≈ 2.08 µg/mL) | 176 |  |  | CC(C)[C@H](C[C@H]1SC(=O)NC1=O)c1ccc(-c2ccc3cccc(F)c3c2)[nH]c1=O (relative stereo)
16 | > 3 | > 3 | 22.5 (≈ 9.12 µg/mL) | 11.1 (≈ 4.5 µg/mL) | 68.5 | 0.085 | 0.35 | CC(C)/C(=C1\C(=O)NC(=O)N1C)c1ccc(-c2ccc3cccc(F)c3c2)[nH]c1=O
17 | > 3 | 1.27 | 27.4 (≈ 10.8 µg/mL) | 6.9 (≈ 2.72 µg/mL) | 31.5 | 0.085 | 0.61 | CC(C)[C@@H](c1ccc(-c2ccc3cccc(F)c3c2)[nH]c1=O)[C@@H]1OC(=O)NC1=O (relative stereo)
18 | > 3 | > 3 | 33.7 (≈ 14.6 µg/mL) | 3.68 (≈ 1.6 µg/mL) |  |  |  | CCC(CC)C(/C=C1\OC(=O)NC1=O)c1ccc(-c2ccc3cccc(F)c3c2)[nH]c1=O (centres undefined)
19 | > 3 | > 3 | 23.3 (≈ 9.52 µg/mL) | 9.2 (≈ 3.76 µg/mL) | 229 |  |  | CC(C)/C(=C1/SC(=O)NC1=O)c1ccc(-c2ccc3cccc(F)c3c2)[nH]c1=O
20 | 1.68 | 0.95 | 35.4 (≈ 14.5 µg/mL) | 24.4 (≈ 9.97 µg/mL) | 103 | 0.006 | 0.015 | CC(C)[C@H](C[C@H]1OC(=O)NC1=O)c1ccc(-c2ccc3cccc(F)c3c2)[nH]c1=O (relative stereo)
21 | > 3 | 1.46 | 10.7 (≈ 4.34 µg/mL) | 7.5 (≈ 3.04 µg/mL) | 123 |  |  | CC(C)C(/C=C1\NC(=O)NC1=O)c1ccc(-c2ccc3cccc(F)c3c2)[nH]c1=O (centres undefined)
22 | 0.153 | < 0.0667 | 33.6 (≈ 14.2 µg/mL) | 26.6 (≈ 11.2 µg/mL) | 176 |  |  | CC(C)C(CC1C(=O)NC(=O)N1C)c1ccc(-c2ccc3cccc(F)c3c2)[nH]c1=O (centres undefined)
